Assay results reported in patent US6355799B1, “Substituted benzene compounds, process for their preparation, and herbicidal and defoliant compositions containing them” (ISK Americas Incorporated, priority 1997, dated 2002).

Experiments:
Assay type in all cases: in vivo
[1] = test system: johnsongrass (Sorghum halepense, SORHA); experiment: Post-emerge test, greenhouse herbicide activity screening; details: post-emerge, 14 days after application, rating scale 0-100
Method in brief: (§1)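 Herbicidal damage is scored 0 (none) to 100 (complete plant death) two weeks after a simulated field spray. Rates span 15–1000 g ai/ha, delivered in acetone at 187 l/ha. For post-emergence treatments, plants have 2–3 leaves and the spray carries 0.25% v/v non-ionic surfactant.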

[2] = test system: barnyardgrass (Echinochloa crus-galli, ECHCG); experiment: as above; details: post-emerge, 14 days after application, rating scale 0-100
Method in brief: as §1

[3] = test system: lambsquarters (Chenopodium album, CHEAL); experiment: as above; details: post-emerge, 14 days after application, rating scale 0-100
Method in brief: as §1

[4] = test system: large crabgrass (Digitaria sanguinalis, DIGSA); experiment: as above; details: post-emerge, 14 days after application, rating scale 0-100
Method in brief: as §1

[5] = test system: redroot pigweed (Amaranthus retroflexus, AMARE); experiment: as above; details: post-emerge, 14 days after application, rating scale 0-100
Method in brief: as §1

[6] = test system: sicklepod (Cassia obtusifolia, CASOB); experiment: as above; details: post-emerge, 14 days after application, rating scale 0-100
Method in brief: as §1

[7] = test system: green foxtail (Setaria viridis, SETVI); experiment: as above; details: post-emerge, 14 days after application, rating scale 0-100
Method in brief: as §1

[8] = test system: ivyleaf morningglory (Ipomoea hederacea, IPOHE); experiment: as above; details: post-emerge, 14 days after application, rating scale 0-100
Method in brief: as §1

[9] = test system: velvetleaf (Abutilon theophrasti, ABUTH); experiment: as above; details: post-emerge, 14 days after application, rating scale 0-100
Method in brief: as §1

[10] = test system: field corn (Zea mays L., var. Dekalb 535, CORN); experiment: Pre-emerge test, crop safety; details: rated 14 days after application, 0 = no damage, 100 = complete death
Method in brief: (§2)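 Applied at 15–1000 g ai/ha from acetone in 187 l/ha spray volume. Post-emergence applications included 0.25% v/v non-ionic surfactant and reached plants sown 8–21 days before. Pre-emergence applications were incorporated by surface watering. Efficacy or crop damage was rated on a 0–100 scale after 14 days.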

[11] = test system: upland rice (Oryza sp., var. Tebonnet, RICE); experiment: Pre-emerge test, crop safety; details: rated 14 days after application, 0 = no damage, 100 = complete death
Method in brief: as §2

[12] = test system: johnsongrass (Sorghum halepense, SORHA); experiment: Pre-emerge test, greenhouse herbicide activity screening; details: rated 14 days after application, 0 = no damage, 100 = complete death
Method in brief: as §2

[13] = test system: barnyardgrass (Echinochloa crus-galli, ECHCG); experiment: as above; details: rated 14 days after application, 0 = no damage, 100 = complete death
Method in brief: as §2

[14] = test system: lambsquarters (Chenopodium album, CHEAL); experiment: as above; details: rated 14 days after application, 0 = no damage, 100 = complete death
Method in brief: as §2

[15] = test system: large crabgrass (Digitaria sanguinalis, DIGSA); experiment: as above; details: rated 14 days after application, 0 = no damage, 100 = complete death
Method in brief: as §2

[16] = test system: sicklepod (Cassia obtusifolia, CASOB); experiment: as above; details: rated 14 days after application, 0 = no damage, 100 = complete death
Method in brief: as §2

[17] = test system: green foxtail (Setaria viridis, SETVI); experiment: as above; details: rated 14 days after application, 0 = no damage, 100 = complete death
Method in brief: as §2

[18] = test system: ivyleaf morningglory (Ipomoea hederacea, IPOHE); experiment: as above; details: rated 14 days after application, 0 = no damage, 100 = complete death
Method in brief: as §2

[19] = test system: velvetleaf (Abutilon theophrasti, ABUTH); experiment: as above; details: rated 14 days after application, 0 = no damage, 100 = complete death
Method in brief: as §2

[20] = test system: redroot pigweed (Amaranthus retroflexus, AMARE); experiment: as above; details: rated 14 days after application, 0 = no damage, 100 = complete death
Method in brief: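 Rating: 0–100 visual injury, 14 DAA. Application: acetone, 187 l/ha, 15–1000 g ai/ha, flat-fan track sprayer with nozzle 40–45 cm above soil or canopy. Post-emerge runs used 0.25% v/v surfactant on 2–3 leaf plants.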

[21] = test system: field corn (Zea mays L., var. Dekalb 535, CORN); experiment: Post-emerge test, crop safety; details: post-emerge, 14 days after application, rating scale 0-100
Method in brief: as §2

[22] = test system: upland rice (Oryza sp., var. Tebonnet, RICE); experiment: Post-emerge test, crop safety; details: post-emerge, 14 days after application, rating scale 0-100
Method in brief: as §2

COc1c(Cl)cc(F)c(-n2c(=O)cc(C(F)(F)F)n(C)c2=O)c1NC(=O)C=Cc1ccccc1 [2-78]
40: Pre-emerge phytotoxicity rating (0-100), crop damage, RICE ([11]; 63 g ai/ha)
90: Pre-emerge Herbicidal Activity, phytotoxicity rating (0-100), SETVI ([17]; 63 g ai/ha)
30: phytotoxicity rating SETVI ([7]; 63 g ai/ha) | phytotoxicity rating SETVI ([7]; 250 g ai/ha) | Pre-emerge Herbicidal Activity, phytotoxicity rating (0-100), DIGSA ([15]; 63 g ai/ha) | phytotoxicity rating CORN ([21]; 250 g ai/ha)
100: phytotoxicity rating CHEAL ([3]; 63 g ai/ha) | phytotoxicity rating CHEAL ([3]; 250 g ai/ha) | phytotoxicity rating AMARE ([5]; 63 g ai/ha) | phytotoxicity rating AMARE ([5]; 250 g ai/ha) | phytotoxicity rating CASOB ([6]; 250 g ai/ha) | phytotoxicity rating IPOHE ([8]; 250 g ai/ha) | phytotoxicity rating ABUTH ([9]; 63 g ai/ha) | phytotoxicity rating ABUTH ([9]; 250 g ai/ha) | Pre-emerge Herbicidal Activity, phytotoxicity rating (0-100), ECHCG ([13]; 250 g ai/ha) | Pre-emerge Herbicidal Activity, phytotoxicity rating (0-100), CHEAL ([14]; 63 g ai/ha) | Pre-emerge Herbicidal Activity, phytotoxicity rating (0-100), CHEAL ([14]; 250 g ai/ha) | Pre-emerge Herbicidal Activity, phytotoxicity rating (0-100), DIGSA ([15]; 250 g ai/ha) | Pre-emerge Herbicidal Activity, phytotoxicity rating (0-100), CASOB ([16]; 63 g ai/ha) | Pre-emerge Herbicidal Activity, phytotoxicity rating (0-100), CASOB ([16]; 250 g ai/ha) | Pre-emerge Herbicidal Activity, phytotoxicity rating (0-100), SETVI ([17]; 250 g ai/ha) | Pre-emerge Herbicidal Activity, phytotoxicity rating (0-100), IPOHE ([18]; 250 g ai/ha) | Pre-emerge Herbicidal Activity, phytotoxicity rating (0-100), ABUTH ([19]; 63 g ai/ha) | Pre-emerge Herbicidal Activity, phytotoxicity rating (0-100), ABUTH ([19]; 250 g ai/ha) | Pre-emerge Herbicidal Activity, phytotoxicity rating (0-100), AMARE ([20]; 63 g ai/ha) | Pre-emerge Herbicidal Activity, phytotoxicity rating (0-100), AMARE ([20]; 250 g ai/ha)
95: Pre-emerge phytotoxicity rating (0-100), crop damage, RICE ([11]; 250 g ai/ha)
50: phytotoxicity rating RICE ([22]; 63 g ai/ha)
65: phytotoxicity rating RICE ([22]; 250 g ai/ha)
20: Pre-emerge Herbicidal Activity, phytotoxicity rating (0-100), IPOHE ([18]; 63 g ai/ha)
25: phytotoxicity rating CORN ([21]; 63 g ai/ha)
0: phytotoxicity rating SORHA ([1]; 63 g ai/ha) | phytotoxicity rating DIGSA ([4]; 63 g ai/ha) | phytotoxicity rating DIGSA ([4]; 250 g ai/ha) | Pre-emerge phytotoxicity rating (0-100), crop damage, CORN ([10]; 63 g ai/ha)
70: phytotoxicity rating CASOB ([6]; 63 g ai/ha)
10: phytotoxicity rating SORHA ([1]; 250 g ai/ha) | phytotoxicity rating ECHCG ([2]; 63 g ai/ha) | phytotoxicity rating ECHCG ([2]; 250 g ai/ha) | Pre-emerge phytotoxicity rating (0-100), crop damage, CORN ([10]; 250 g ai/ha) | Pre-emerge Herbicidal Activity, phytotoxicity rating (0-100), SORHA ([12]; 63 g ai/ha) | Pre-emerge Herbicidal Activity, phytotoxicity rating (0-100), ECHCG ([13]; 63 g ai/ha)
80: phytotoxicity rating IPOHE ([8]; 63 g ai/ha) | Pre-emerge Herbicidal Activity, phytotoxicity rating (0-100), SORHA ([12]; 250 g ai/ha)
